The LD50 is the dose at which mortality reaches 50%. A low value points to a more toxic substance.

Where two headings read alike, the source gives them in different places.

From US4908365A, “Benzhydryloxyethylpiperazine derivatives, processes for their preparation and pharmaceutical compositions in which they are present” (priority 1986, dated 1990) come the findings set out here.

Data set [1] concerns peritoneal pain caused by phenylbenzoquinone (PBQ). Description: Peripheral analgesic activity (phenylbenzoquinone peritoneal pain). Particulars: Mus musculus, 0.5 h, read-out: Peripheral analgesic activity ED50. It is filed as in vivo, mice. The text has this: E-Peripheral analgesic activity
A peritoneal pain is caused in mice by the intraperitoneal injection of phenylbenzoquinone (PBQ). The test tries to measure the decrease in the pain syndrome, characterized by an abdominal twisting movement, which is caused by injecting the test product thirty minutes before the administration of PBQ.

Data set [2] concerns histamine. Description: Bronchospasm by inhalation of a histamine solution. Format: in vivo, guinea-pigs. Particulars: for ED50: Cavia porcellus, 0.5 h, read-out: Bronchospasm ED50. How it is done:
F-Bronchospasm by inhalation of a histamine solution
Guinea-pigs are placed in a closed chamber into which histamine is introduced as an aerosol, and only those which show very distinct signs of asphyxia within four minutes are selected.
The substance to be studied is administered to groups of guinea-pigs thirty minutes before a further period in the chamber in order to check the resistance to histamine. A guinea-pig is considered to be protected if it resists the histamine aerosol for ten minutes without showing signs of asphyxia.
A 50% effective dose is calculated from the results obtained.

Data set [3] has as its system histamine. The experiment in a line: animal or person. It is filed as in vivo, guinea-pigs. The settings on record: Cavia porcellus, 0.5 h, read-out: Histaminic shock ED50.
The next data set can be described thus: in vivo. Particulars: mouse, ip.
Data set [4] has as its system sleep induced by pentobarbital. The experiment in a line: animal or person. Format: in vivo, mice. Particulars: ip.
For data set [5], the system named is mice. The experiment in a line: Study of the spontaneous motility (motor activity), photoelectric actimeter. Format: in vivo. The settings on record: mouse, at 25 mg.kg^-1 i.p.
Data set [6] deals with mice. The experiment in a line: Exploration behavior (hole-board). The settings on record: Mus musculus, ip, 0.5 h, read-out: Exploration behavior ED50. It is filed as in vivo. An excerpt:
Thirty minutes after the intraperitoneal administration of the derivatives according to the invention, each mouse is placed on an automated hole-board for five minutes and the number of holes explored is noted every minute.
(§1) A 50% effective dose can be calculated from the results obtained.

In data set [7] the test system is mice. The experiment in a line: Muscle-relaxing action (traction test). It is filed as in vivo. The settings on record: Mus musculus, ip, read-out: Muscle-relaxing action - Traction test ED50.
Excerpt: C-Muscle-relaxing action (traction test)
This test assesses the presence or absence of redressments in a mouse brought up to a horizontal wire with its front paws.
The number of mice which are unable to grip the wire with one of their back paws within five seconds are noted.
as §1

For `CS(=O)(=O)O.CS(=O)(=O)O.O=C1c2ccccc2C(=O)N1CCN1CCN(CCOC(c2ccccc2)c2ccccc2)CC1` [Derivative 2, 1-[2-(Benzhydryloxy)ethyl]-4-[2-(phthalimido)-ethyl]piperazine dimethanesulfonate], the ED50 in data set [1] (ip) turned out to be 3.12 mg/kg; in the data set on histamine [2] (ip), 3.67 mg/kg; in the data set with histamine [3] (ip), 2.03 mg/kg. This compound yielded an LD50 in “in vivo” of 211 mg/kg.

Take `O=C1c2ccccc2C(=O)N1CCCCN1CCN(CCOC(c2ccccc2)c2ccccc2)CC1` [Derivative 19]: the ED50 was determined as 1.56 mg/kg in data set [1] (ip), 5.34 mg/kg in the data set on histamine [2] (po) and 2.2 mg/kg in the data set on histamine [3] (po). For the same compound, the LD50 in the data set “in vivo” came to 133 mg/kg.

As to `O=C1CCC(=O)N1CCN1CCN(CCOC(c2ccccc2)c2ccccc2)CC1` [Derivative 22], the ED50 worked out at 35 mg/kg in data set [1] (po), 3.96 mg/kg with histamine [2] (ip) and 3.25 mg/kg in the data set on histamine [3] (ip). The compound further showed an LD50 in the data set “in vivo” of 146 mg/kg.

Turning to `O=c1n(CCN2CCN(CCOC(c3ccccc3)c3ccccc3)CC2)c2ccccc2n1Cc1ccccc1` [Derivative 32], in the data set on histamine [2] (guinea pig, in vivo, po), the Bronchospasm is 33%. For the same compound, the ED50 with histamine [3] (po) was found to be 2.3 mg/kg. In addition, the LD50 in the data set “in vivo” stood at 400 mg/kg.

With `O=C(NCCN1CCN(CCOC(c2ccccc2)c2ccccc2)CC1)c1ccccc1[N+](=O)[O-]` [Derivative 49], in data set [4] (mouse, in vivo), the Interaction with pentobarbital entry is recorded as “no interaction”. Also, the ED50 in data set [1] (sc) was 2.6 mg/kg; in the data set with histamine [2] (po), 3.12 mg/kg. The LD50 in “in vivo” worked out at 131 mg/kg.

As for `CC(C)(C)c1ccc(C(O)CCCN2CCC(C(O)(c3ccccc3)c3ccccc3)CC2)cc1` (stereo not shown) [Terfenadine, reference compound], the Motor activity entry in the data set on mice [5] is “Significant decrease”. In addition, the ED50 with mice [6] came to 37 mg/kg; in the data set with mice [7], 31 mg/kg; in data set [4] (Mus musculus, read-out: Interaction with pentobarbital ED50), 25 mg/kg; in data set [1] (ip) it was 3.1 mg/kg. Further, in the data set “in vivo”, the median lethal dose (LD50) is 100 mg/kg.
